Where “and” joins values, the source holds several entries; their conditions need not be identical. Equal entries are not always repeated.
Conditions: Liquid, Transpiration method

CCCCCCC(=O)OC [methyl heptanoate]
Conditions	vapor or sublimation pressure [kPa]
278.1 K	0.03453
283.5 K	0.05365
286.4 K	0.06767
288.3 K	0.0791
290.3 K	0.09122
293.2 K	0.1164
296.2 K	0.1424
298.2 K	0.1642
300.3 K	0.1892
303.1 K	0.2326
306.1 K	0.2838
308.2 K	0.3321
310.2 K	0.3804
313.2 K	0.4658

CCC(=O)OC(C)(C)CC [1,1-dimethylpropyl propanoate]
Conditions	vapor or sublimation pressure [kPa]
273.9 K	0.1147
274.9 K	0.123
276.9 K	0.1423
278.9 K	0.1651
281 K	0.1902
283 K	0.2208
286 K	0.2725
289.1 K	0.3316
292.2 K	0.4061
295.2 K	0.4966
298.2 K	0.5971
301.2 K	0.7239
304.3 K	0.8484
307.4 K	1.025
310.4 K	1.237

CCCC(=O)OC(C)(C)CC [1,1-dimethylpropyl butanoate]
Conditions	vapor or sublimation pressure [kPa]
274.5 K	0.04772
276.5 K	0.05746
278.2 K	0.06508
278.6 K	0.06692
280.6 K	0.07832
282.6 K	0.09058
283.3 K	0.09732
285.6 K	0.1128
288.2 K	0.1456
288.7 K	0.1441
291.7 K	0.1788
293.2 K	0.2021
294.8 K	0.22
297.4 K	0.2678
298.2 K	0.2935
300.4 K	0.3315
303.2 K	0.4074
303.5 K	0.402
306.5 K	0.4906
308.2 K	0.5588
309.5 K	0.5946

CCCCOC(=O)C(C)(C)C [butyl 2,2-dimethylpropanoate]
Conditions	vapor or sublimation pressure [kPa]
273.6 K	0.0462
273.9 K	0.04812
274.7 K	0.0517
276.5 K	0.06076
278.4 K	0.06784
282.6 K	0.09472
283.2 K	0.09954
285.6 K	0.1239
288.3 K	0.1447
288.7 K	0.1514
291.7 K	0.1872
293.2 K	0.2073
294.8 K	0.2343
297.8 K	0.2886
298.1 K	0.2847
300.8 K	0.3473
303.3 K	0.4149
303.9 K	0.429
307 K	0.5176
308.3 K	0.5552
309 K	0.596
313.3 K	0.7473

CCCCC(=O)OC [methyl pentanoate]
Conditions	vapor or sublimation pressure
274.9 K	0.3386 kPa
275.2 K	0.3442 kPa
278.2 K	0.4198 kPa
279.4 K	0.4589 kPa
281.2 K	0.5173 kPa
282.6 K	0.5608 kPa
284.2 K	0.6396 kPa
284.3 K	0.6 kPa
284.5 K	0.6182 kPa
285.5 K	0.6907 kPa
287.4 K	0.7539 kPa
288.4 K	0.7888 kPa and 0.7837 kPa
288.5 K	0.8195 kPa
288.7 K	0.8268 kPa
289.2 K	0.873 kPa
290.3 K	0.9304 kPa
292.4 K	1.029 kPa
293.3 K	1.09 kPa
293.4 K	1.125 kPa
294.5 K	1.227 kPa
296.2 K	1.327 kPa
297.5 K	1.511 kPa
298.3 K	1.517 kPa
299.2 K	1.615 kPa and 1.582 kPa
302.2 K	1.974 kPa and 1.937 kPa
305.2 K	2.273 kPa
308.2 K	2.653 kPa
311.2 K	3.11 kPa

CCC(C)(C)OC(C)=O [1,1-dimethylpropyl acetate]
Conditions	vapor or sublimation pressure [kPa]
273.7 K	0.3855
274 K	0.4017
275.5 K	0.4449
277.5 K	0.5063
278.6 K	0.5244
279.5 K	0.5659
281.6 K	0.6399
283.5 K	0.716
283.6 K	0.7353
286.6 K	0.878
288.4 K	0.9539
289.7 K	1.053
292.7 K	1.218
293.5 K	1.336
295.8 K	1.492
298.4 K	1.698
298.8 K	1.785
301.9 K	2.079
303.4 K	2.33
304.9 K	2.418
307.9 K	2.829
308.4 K	2.994

CCCC(=O)OC [methyl butanoate]
Conditions	vapor or sublimation pressure
274.3 K	1.06 kPa
276.4 K	1.292 kPa
278.2 K	1.397 kPa
279.4 K	1.492 kPa
281.3 K	1.627 kPa
281.6 K	1.705 kPa
283.4 K	1.854 kPa
283.7 K	1.965 kPa
285.5 K	2.102 kPa
285.8 K	2.24 kPa
288.3 K	2.537 kPa and 2.523 kPa and 2.466 kPa
290.3 K	2.927 kPa
291.2 K	3.085 kPa and 2.937 kPa
292.2 K	3.214 kPa
293.2 K	3.382 kPa
294.3 K	3.717 kPa
295.3 K	4.065 kPa
298.1 K	4.479 kPa
300.2 K	5.224 kPa
301.2 K	5.303 kPa
303.2 K	5.697 kPa

CCCCCC(=O)OC [methyl hexanoate]
Conditions	vapor or sublimation pressure
280.7 K	0.1387 kPa
283.6 K	0.1707 kPa
284.6 K	0.1839 kPa
286.6 K	0.2147 kPa
287.6 K	0.2219 kPa
289.5 K	0.2598 kPa
290.5 K	0.2793 kPa and 0.2693 kPa
292.5 K	0.3111 kPa
293.3 K	0.3367 kPa
293.4 K	0.3489 kPa
293.5 K	0.3435 kPa
295.4 K	0.3851 kPa
296.4 K	0.4226 kPa
298.3 K	0.4594 kPa
298.4 K	0.4697 kPa
300.3 K	0.5403 kPa
303.3 K	0.6501 kPa
304.3 K	0.7261 kPa
308.3 K	0.8925 kPa
309.3 K	0.9193 kPa
312.3 K	1.147 kPa and 1.048 kPa
316.3 K	1.458 kPa
320.4 K	1.764 kPa
324.4 K	2.217 kPa
328.4 K	2.678 kPa
331.4 K	3.178 kPa

CCCCOC(=O)C(C)CC (centres undefined) [butanoic acid, 2-methyl-, butyl ester]
Conditions	vapor or sublimation pressure [kPa]
274.2 K	0.02305
276.2 K	0.02587
278.2 K	0.03181
280.2 K	0.0362
283.2 K	0.04723
288.1 K	0.06951
293.1 K	0.1043
298.1 K	0.1517
303.2 K	0.2142
308.2 K	0.3099
313.3 K	0.4305
316.2 K	0.5454
319.2 K	0.6694

CC(C)COC(=O)C(C)C [2-methylpropyl 2-methylpropanoate]
Conditions	vapor or sublimation pressure [kPa]
274.2 K	0.1054
276.2 K	0.1253
278.2 K	0.1479
283.2 K	0.2118
288.2 K	0.2962
293.2 K	0.4346
298.2 K	0.6003
303.3 K	0.8274
308.4 K	1.137
311.2 K	1.363
313.4 K	1.497
316.2 K	1.851
319.2 K	2.224

COC(=O)CC(C)(C)C [methyl 3,3-dimethylbutanoate]
Conditions	vapor or sublimation pressure [kPa]
273.9 K	0.3046
274.4 K	0.3169
275.9 K	0.3519
277.4 K	0.3954
278.7 K	0.436
279.5 K	0.4645
281.5 K	0.5226
282.5 K	0.5675
283.3 K	0.5937
285.5 K	0.6878
288.2 K	0.8223
288.6 K	0.8158
291.6 K	0.9977
293.2 K	1.131
294.6 K	1.195
297.7 K	1.436
298.2 K	1.533
301.8 K	1.854
303.2 K	2.042
303.8 K	2.089
306.9 K	2.498
308.2 K	2.737
309 K	2.783
313.2 K	3.591
